Laboratory results: PMC6515380 (2019)

What was measured:
[1] = tested on: wtTel26 (DNA, G4) TTAGGGTTAGGGTTAGGGTTAGGGTT; test: fluorescence titration; conditions: 100 mM K+, 25 °C, pH 7; for Kd: 0.2 μM ligand titrated with DNA; for ΔGbindo(expt): 0.2 μM ligand, ΔG obtained from experimentally determined Kd
[2] = tested on: wtTel26 (DNA, G4) TTAGGGTTAGGGTTAGGGTTAGGGTT; test: 1D 1H NMR titration; conditions: 25 mM potassium phosphate, 70 mM KCl, pH 7, 25 °C, 100–250 µM DNA
[3] = medium exchange, peak broadening, less specific

Compound | Kd [1] [nM] | ΔGbindo(expt) [1] [kcal/mol] | binding [2, 3] | binding ([2]; slow exchange, well-defined complex)
COc1cc2c(cc1OC)-c1cc3ccc(OC)c(OC)c3c[n+]1CC2 | 740 ± 20.6 | -8.41 ± 0.01 | yes | –
c1c2c(cc3c1OCO3)-c1cc3ccc4c(c3c[n+]1CC2)OCO4 | 333 ± 5.7 | -8.89 ± 0.1 | yes | –
COc1cc2c(cc1OC)-c1cc3ccc4c(c3c[n+]1CC2)OCO4 | 16 ± 1.6 | -10.70 ± 0.02 | – | yes
COc1ccc2cc3[n+](cc2c1OC)CCc1cc2c(cc1-3)OCO2 | 1994 ± 46.1 | -7.82 ± 0.06 | yes | –
